The data set in a line: method code SF-AS, from DOI: 10.2175/106143002x139965, PMID: 12150246.
The compound `Clc1ccc(I)cc1` registered a log partition coefficient (logP) of 4.12.
With `O=[N+]([O-])c1ccc(Cl)c([N+](=O)[O-])c1` the figure was 2.18.
As to `Nc1ccc(Cl)c(Cl)c1`, the logP was found to be 2.55.
Next, `N#Cc1ccc(Cl)cc1`: 2.24; `Clc1cccc(I)c1Cl`: 4.93; `Nc1c(Cl)cc([N+](=O)[O-])cc1Cl`: 2.84.
Next, `Nc1ccc(Cl)cc1[N+](=O)[O-]`: 2.56; `Fc1ccc(Cl)cc1Cl`: 3.38.
With `Nc1cc([N+](=O)[O-])ccc1Cl` the figure was 2.2; with `O=[N+]([O-])c1cc(Cl)ccc1O`, 2.48.
`Clc1cccc(Cl)c1Br` came in with a log partition coefficient (logP) of 4.17.
Next, `Nc1ccc(F)cc1Cl`: 2.04; `Clc1cccc(Br)c1Cl`: 4.61; `Fc1c(Cl)cccc1Cl`: 3.38.
Next, `Nc1ccc([N+](=O)[O-])cc1Cl`: 2.14.

For orientation: logP means the decadic logarithm of the partition coefficient of the neutral form, usually between octanol and water.
